Key:
HepG2 cells [1] = test: MTT anti-proliferation assay, HepG2; type: cell-based, human; settings: 24 h, average of three determinations
Experimental: (§1) The 22 synthesized resveratrol compounds were evaluated for anti-proliferative activities against three human cancer cell lines, including HepG2, A549 and HeLa cells, using 3-[4,5-dimethylthiazol-2-yl]-2,5 diphenyl tetrazolium bromide (MTT) assays. Paclitaxel, a well-known tubulin inhibitor, was used as a positive control. […] Therefore, the inhibitory activity of the compounds depended not only on the 2-position substitution of acrylic acid, but also on the 3-position substitution of acrylic acid.
(§2) The anti-proliferative and cytotoxicity activity was determined using MTT assay. Human cervical carcinoma HeLa cells, human hepatocellular carcinoma HepG2 cells, human lung carcinoma A549 cells were representative in the anti-proliferation assay, which were obtained from the Shanghai Institute of Cell Biology (Shanghai, China). Normal African green monkey kidney Vero cells were a gift from Dr Xiumiao He at Guangxi University for Nationalities. Normal human hepatocytes LO2 cells were a gift from Dr Xing Lin at Guangxi Medical University. The HepG2, Hela, LO2 and Vero cells were cultured in Dulbecco's modified Eagle's medium (DMEM, Gibco) and the A549 cells were cultured in RPMI1640 (Gibco), both media were supplemented with 10% fetal calf serum and antibiotics (100 IU ml^−1 penicillin, 100 IU ml^−1 streptomycin; Amresco).
(§3) Cells were seeded in 96-well microtiter plates at a density of 1 × 10^4 cells well^−1 and incubated with different concentrations of compound (6.25, 12.50, 25.00, 50.00 to 100.00 µM), cisplatin and paclitaxel in RPMI-1640 or DMEM at 37°C with 5% CO2. After 24 h, cell morphology was observed using a light microscope, and then 20 µl of MTT solution (5 mg ml^−1) was added to the well and incubated for 4 h, then cell survival was determined by measuring the optical density (OD) absorbance at a wavelength of 570 nm using an ELISA microplate reader. The inhibition rate (IR) following each compound treatment was determined by the following equation: IR (%) = (1 − ODexp/ODcon) × 100%, where ODexp and ODcon are the OD of the treated and untreated cells, respectively. Cisplatin and paclitaxel were used as positive control drugs.

A549 cells = test: MTT anti-proliferation assay, A549; type: cell-based, human; settings: 24 h, average of three determinations
Experimental: as §1, §2, §3

HeLa cells = test: MTT anti-proliferation assay, HeLa; type: cell-based, human; settings: 24 h, average of three determinations
Experimental: The 22 synthesized resveratrol compounds were evaluated for anti-proliferative activities against three human cancer cell lines, including HepG2, A549 and HeLa cells, using 3-[4,5-dimethylthiazol-2-yl]-2,5 diphenyl tetrazolium bromide (MTT) assays. Paclitaxel, a well-known tubulin inhibitor, was used as a positive control.
as §2
After 24 h, cell morphology was observed using a light microscope, and then 20 µl of MTT solution (5 mg ml^−1) was added to the well and incubated for 4 h, then cell survival was determined by measuring the optical density (OD) absorbance at a wavelength of 570 nm using an ELISA microplate reader. […] Cisplatin and paclitaxel were used as positive control drugs.

Vero cells = test: MTT cytotoxicity test, Vero; type: cell-based, African green monkey; settings: 24 h, average of three determinations
Experimental: (§4) Vero cells are non-tumorigenic cell lines and are important raw materials as the research and production of biological products. Vero cells show low tumorigenicity and had been approved for use in the production of human virus vaccines. Thus, Vero cells were chosen as a control for cytotoxicity. All compounds were evaluated for their cell toxicity against Vero and normal human hepatocytes cells line (LO2) using MTT assays.
as §2, §3

[2] = system: normal human hepatocytes LO2 cells; test: MTT cytotoxicity test, LO2; type: cell-based; settings: 24 h, average of three determinations
Experimental: as §4, §2, §3

HepG2 cells [3] = test: Morphologic observation by light microscope; type: cell-based, human; settings: HepG2, cisplatin 20 µM, 24 h
Experimental: Morphological observations can directly reflect the effects of drugs on cells. HepG2 cells were cultured with increasing concentrations of compound r (0, 5, 15 and 45 µM) for 24 h and observed using a light microscope. The cell morphology was clearly altered with the increase in drug concentration (figure 2).
Figure 2. Effect of compound r on the microscopic examination of HepG2 cells. Morphology of HepG2 treated with compound r (0, 5, 15 and 45 µM) and cisplatin (20 µM) for 24 h. Light microscopy photographs, with 40× objective.
as §3

HepG2 cells [4] = test: Cell cycle assay by flow cytometry; type: cell-based, human; settings: HepG2, 20 µM, 24 h
Experimental: To evaluate the effects of compound r on cell cycle progression of HepG2, cells were treated with compound r at different concentrations (0, 5, 15 and 45 µM) for 24 h and then examined by flow cytometry. The accumulation of cells in S phase increased with increasing concentration of compound r. Approximately 18.36 ± 1.93%, 19.39 ± 2.06%, 29.9 ± 0.87% and 34.24 ± 1.00% of cells were arrested in S phase in response to 0, 5, 15 and 45 µM compound r, respectively. In comparison, 39.56 ± 0.97% cells were arrested in S phase after treatment with 20 µM cisplatin for 24 h.
Figure 5. Cells treated with 0, 5, 15 and 45 µM compound r for 24 h were collected and analysed by flow cytometry. Images were representative of three independent experiments. Values represented the mean ± s.d.; versus blank, *p < 0.01, **p < 0.001; versus control ^#p < 0.01, ^##p < 0.001.
Cells were treated with compound r (0, 5, 15, 45 µM) or 20 µM of cisplatin as the control for 24 h. Cells were collected by centrifugation (1000 rpm, 5 min), washed with PBS and fixed with 70% ice-cold ethanol overnight at 4°C. The cell cycle was examined on a flow cytometer using a cell cycle analysis kit (Beyotime Biotechnologyin, China) in accordance with the manufacturer's instructions.

Q: How did the IC50 (HepG2 cells [1]) turn out when “3-(4-hydroxy-3-methoxy-5-nitrophenyl)-2-(4-methoxyphenyl) acrylic acid [compound s]” was run?
A: The IC50 was 42 ± 4 µM.

Q: What about the IC50 (A549 cells) of the same molecule?
A: Its IC50 is 15 ± 4 µM.

Q: And the IC50 (HeLa cells)?
A: Its IC50 is 39 ± 2 µM.

Q: And the CC50 (Vero cells)?
A: Its CC50 is greater than 100 µM.

Q: What about the CC50 [2] of the same molecule?
A: Its CC50 is 83 ± 2 µM.

Q: With `N.N.[Cl][Pt][Cl]` [cisplatin, reference compound] as the molecule, how does the cell morphology (HepG2 cells [3]) read?
A: Its cell morphology is “rounded shape”.

Q: What about the “cells arrested in S phase” value (HepG2 cells [4]) of the same molecule?
A: The value was 39.56 ± 0.97%.

From paper PMC6774960, “Design, synthesis and biological evaluation of a series of new resveratrol analogues as potential anti-cancer agents” (Royal Society Open Science, 2019)
